Molecules are shown by their SMILES. Some results are limits rather than exact numbers.

In one test the test system is HCV replicon cells. The test can be described thus: Cell-based HCV replicon assay (replicon RNA level by real time PCR, Taqman). The note with it: Hepatitis C virus, 72 h, HCV replicon cells, replicon RNA level by real time PCR (Taqman), harvested on day 3; calculated EC90 reported as range class; read-out: EC90 (μM) range. The gist of the method: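 Readout: ΔCT between NS5B replicon RNA and GAPDH by real-time RT-PCR in lysates harvested on day 3, fitted sigmoidally; EC50 at ΔCT=1, EC90 at ΔCT=3.2. Compounds tested at ten 2-fold dilutions from 25 μM to 1 μM start, 10% FBS, 0.5% DMSO.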
As for `Cc1nc(NCC2CC2)nc(N[C@@H]2C[C@H](CO)[C@@H](O)[C@@H]2O)c1-c1nc2ccccc2s1` [Example 1252], the EC90 was over 5 µM.

As for `Cc1nc(NCC(F)(F)F)nc(N[C@@H]2C[C@H](CO)[C@@H](O)[C@@H]2O)c1-c1nc2ccccc2s1` [Example 1253], the EC90 is 0.5 to 5 µM.

`COCCNc1nc(C#N)c(-c2nc3ccccc3s2)c(N[C@@H]2C[C@H](CO)[C@@H](O)[C@H]2O)n1` [Example 1301]: the EC90 was over 5 µM.

In the case of `COCCNc1nc(N)c(-c2nc3ccccc3s2)c(N[C@@H]2C[C@H](CO)[C@@H](O)[C@H]2O)n1` [Example 1302], the EC90 was 0.5 to 5 µM.

Turning to `CCc1cc2cc(-c3c(C)nc(O)nc3N[C@@H]3C[C@H](CO)[C@@H](O)[C@H]3O)oc2cn1` [Example 1303], the EC90 is 0.5 to 5 µM.

Consider `Cc1nc(N[C@@H](C)c2ccccc2)nc(N[C@@H]2C[C@H](CO)[C@@H](O)[C@H]2O)c1-c1nc2cnccc2s1` [Example 1305], for which the EC90 is 0.5 to 5 µM.

In the case of `COc1cc(OC)cc(C(C)Nc2nc(C)c(-c3nc4cnccc4s3)c(N[C@@H]3C[C@H](CO)[C@@H](O)[C@H]3O)n2)c1` (stereo partly shown) [Example 1306], the EC90 was under 0.5 µM.

In the case of `COc1cc(OC)cc([C@@H](C)Nc2nc(C)c(-c3nc4cnccc4s3)c(N[C@@H]3C[C@H](CO)[C@@H](O)[C@H]3O)n2)c1` [Example 1307], the EC90 was under 0.5 µM.

Consider `Cc1nc(N[C@H](C)C(C)(C)C)nc(N[C@@H]2C[C@H](CO)[C@@H](O)[C@H]2O)c1-c1nc2cnccc2s1` [Example 1308], for which the EC90 is 0.5 to 5 µM.

For `Cc1nc(NCc2cc(F)cc(F)c2)nc(N[C@@H]2C[C@H](CO)[C@@H](O)[C@H]2O)c1-c1nc2cnccc2s1` [Example 1309], the EC90 is under 0.5 µM.

For `Cc1nc(N[C@@H](C)C(C)(C)C)nc(N[C@@H]2C[C@H](CO)[C@@H](O)[C@H]2O)c1-c1nc2cnccc2s1` [Example 1310], the EC90 was 0.5 to 5 µM.

On to `Cc1nc(N[C@H](C)c2ccc(F)cc2)nc(N[C@@H]2C[C@H](CO)[C@@H](O)[C@H]2O)c1-c1nc2cnccc2s1` [Example 1311], for which the EC90 was under 0.5 µM.

`Cc1nc(N[C@@H]2CCc3ccccc32)nc(N[C@@H]2C[C@H](CO)[C@@H](O)[C@H]2O)c1-c1nc2cnccc2s1` [Example 1312]: the EC90 is 0.5 to 5 µM.

For `Cc1nc(N(C)Cc2ccccc2)nc(N[C@@H]2C[C@H](CO)[C@@H](O)[C@H]2O)c1-c1nc2cnccc2s1` [Example 1313], the 90% effect concentration (EC90) was 0.5 to 5 µM.

`Cc1ccc([C@H](C)Nc2nc(C)c(-c3nc4cnccc4s3)c(N[C@@H]3C[C@H](CO)[C@@H](O)[C@H]3O)n2)cc1` [Example 1314]: the EC90 is 0.5 to 5 µM.

On to `Cc1ccc(C2(Nc3nc(C)c(-c4nc5cnccc5s4)c(N[C@@H]4C[C@H](CO)[C@@H](O)[C@H]4O)n3)CC2)cc1` [Example 1315], for which the EC90 was 0.5 to 5 µM.

As to `CC[C@@H](C)Nc1nc(C)c(-c2nc3cnccc3s2)c(N[C@@H]2C[C@H](CO)[C@@H](O)[C@H]2O)n1` [Example 1316], the EC90 is under 0.5 µM.

Regarding `Cc1nc(NCC(C)(C)CO)nc(N[C@@H]2C[C@H](CO)[C@@H](O)[C@H]2O)c1-c1nc2cnccc2s1` [Example 1317], the EC90 is under 0.5 µM.

Take `Cc1nc(NCC(C)(C)CC2CC2)nc(N[C@@H]2C[C@H](CO)[C@@H](O)[C@H]2O)c1-c1nc2cnccc2s1` [Example 1318]: the EC90 is under 0.5 µM.

Regarding `Cc1nc(NCC(C)(C)C)nc(N[C@@H]2C[C@H](CO)[C@@H](O)[C@H]2O)c1-c1nc2c(C)nccc2s1` [Example 1319], the EC90 was under 0.5 µM.

`Cc1ccc([C@@H](C)Nc2nc(C)c(-c3nc4c(C)nccc4s3)c(N[C@@H]3C[C@H](CO)[C@@H](O)[C@H]3O)n2)cc1` [Example 1320]: the EC90 is under 0.5 µM.

On to `Cc1nc(NCC(C)(C)C)nc(N[C@@H]2C[C@H](CO)[C@@H](O)[C@H]2O)c1-c1nc2c(s1)CCN(C)C2` [Example 1321], for which the 90% effect concentration (EC90) is 0.5 to 5 µM.

Consider `Cc1nc(NCC(C)(C)C)nc(N[C@@H]2C[C@H](CO)[C@@H](O)[C@H]2O)c1-c1ccc2ccccc2n1` [Example 1322], for which the EC90 is over 5 µM.

On to `Cc1ccc([C@@H](C)Nc2nc(C)c(-c3ccc4ccccc4n3)c(N[C@@H]3C[C@H](CO)[C@@H](O)[C@H]3O)n2)cc1` [Example 1323], for which the EC90 was over 5 µM.

In the case of `CCOCCNc1nc(C)c(-c2ccc3ccccc3n2)c(N[C@@H]2C[C@H](CO)[C@@H](O)[C@H]2O)n1` [Example 1324], the EC90 was over 5 µM.

For `Cc1nc(N)nc(N[C@@H]2C[C@H](CO)[C@@H](O)[C@H]2O)c1-c1nc2cnccc2s1` [Example 1325], the EC90 is 0.5 to 5 µM.

Consider `CNc1nc(C)c(-c2nc3cnccc3s2)c(N[C@@H]2C[C@H](CO)[C@@H](O)[C@H]2O)n1` [Example 1326], for which the EC90 was under 0.5 µM.

Take `Cc1nc(NCc2cccs2)nc(N[C@@H]2C[C@H](CN)[C@@H](O)[C@H]2O)c1-c1nc2ccccc2s1` [Example 1328]: the EC90 is under 0.5 µM.

On to `Cc1nc(NCc2cccs2)nc(N[C@@H]2C[C@H](CNS(C)(=O)=O)[C@@H](O)[C@H]2O)c1-c1nc2ccccc2s1` [Example 1330], for which the EC90 was under 0.5 µM.

`CC(=O)NC[C@H]1C[C@@H](Nc2nc(NCc3cccs3)nc(C)c2-c2nc3ccccc3s2)[C@H](O)[C@@H]1O` [Example 1331]: the EC90 is under 0.5 µM.

With `CCc1nccc2sc(-c3c(C)nc(NCC4CC4)nc3N[C@@H]3C[C@H](CO)[C@@H](O)[C@H]3O)nc12` [Example 1333], the EC90 was under 0.5 µM.

On to `CCc1nccc2sc(-c3c(C)nc(NCC(C)(C)C)nc3N[C@@H]3C[C@H](CO)[C@@H](O)[C@H]3O)nc12` [Example 1334], for which the EC90 was under 0.5 µM.

For the compound `CCc1nccc2sc(-c3c(C)nc(N[C@H](C)c4ccc(C)cc4)nc3N[C@@H]3C[C@H](CO)[C@@H](O)[C@H]3O)nc12` [Example 1335], the EC90 was under 0.5 µM.

The test is the same for the next values; noted with them: Hepatitis C virus, 72 h, HCV replicon cells, replicon RNA level by real time PCR, harvested day 3; read-out: EC90 (μM) range.
In the case of `Cc1nc(NCC2CC2)nc(N[C@@H]2C[C@H](CO)[C@@H](O)[C@H]2O)c1-c1nc2c(OCC3CC3)nccc2s1` [Example 1338], the EC90 was under 0.5 µM.

In the case of `Cc1ccc([C@@H](C)Nc2nc(C)c(-c3nc4c(OCC5CC5)nccc4s3)c(N[C@@H]3C[C@H](CO)[C@@H](O)[C@H]3O)n2)cc1` [Example 1339], the EC90 is under 0.5 µM.

As for `CCc1nccc2sc(-c3c(C)nc(NCC(F)(F)F)nc3N[C@@H]3C[C@H](CO)[C@@H](O)[C@H]3O)nc12` [Example 1340], the EC90 is under 0.5 µM.

For `CO[C@@H]1[C@H](O)[C@@H](CO)C[C@H]1Nc1nc(NCC(F)(F)F)nc(C)c1-c1nc2ccccc2s1` [Example 1341], the EC90 was under 0.5 µM.

Consider `CCOc1nccc2sc(-c3c(C)nc(N[C@H](C)c4ccc(C)cc4)nc3N[C@@H]3C[C@H](CO)[C@@H](O)[C@H]3O)nc12` [Example 1343], for which the EC90 was under 0.5 µM.

Consider `CCCc1nccc2sc(-c3c(C)nc(N[C@H](C)C4CC4)nc3N[C@@H]3C[C@H](CO)[C@@H](O)[C@H]3O)nc12` [Example 1346], for which the EC90 is under 0.5 µM.

On to `CCOc1cc2cc(-c3c(C)nc(NCC4CC4)nc3N[C@@H]3C[C@H](CNS(C)(=O)=O)[C@@H](O)[C@H]3O)oc2c(C)n1` [Example 1347], for which the EC90 is under 0.5 µM.

`Cc1nc(NCC(F)(F)F)nc(N[C@@H]2C[C@H](CO)N(C(=O)OC(C)(C)C)C2)c1-c1nc2ccccc2s1` [Example 1348]: the EC90 is over 5 µM.

Take `Cc1nc(NCC(F)(F)F)nc(N[C@H]2CN[C@@H](CO)C2)c1-c1nc2ccccc2s1` [Example 1349]: the EC90 was over 5 µM.

In the case of `CO[C@@H]1[C@H](O)[C@@H](CO)C[C@H]1Nc1nc(N[C@H](C)c2ccc(C)cc2)nc(C)c1-c1nc2cnccc2s1` [Example 1350], the EC90 was under 0.5 µM.

With `Cc1nc(N[C@H](C)C(F)(F)F)nc(N[C@@H]2C[C@H](CO)[C@@H](O)[C@H]2O)c1-c1nc2c(C)nccc2s1` [Example 1351], the EC90 is under 0.5 µM.

For the compound `CCO[C@@H]1[C@H](O)[C@@H](CO)C[C@H]1Nc1nc(NCC(F)(F)F)nc(C)c1-c1nc2ccccc2s1` [Example 1352], the EC90 was under 0.5 µM.

For `Cc1nc(N[C@@H](c2ccccc2)C(F)(F)F)nc(N[C@@H]2C[C@H](CO)[C@@H](O)[C@H]2O)c1-c1nc2c(C)nccc2s1` [Example 1353], the EC90 is under 0.5 µM.

`CO[C@@H]1[C@H](O)[C@@H](CO)C[C@H]1Nc1nc(NCC(F)(F)F)nc(C)c1-c1nc2ccccc2o1` [Example 1354]: the EC90 was under 0.5 µM.

Turning to `Cc1nc(N[C@H](C)c2ccc(-n3cccn3)cc2)nc(N[C@@H]2C[C@H](CO)[C@@H](O)[C@H]2O)c1-c1nc2c(C)nccc2s1` [Example 1355], the EC90 was under 0.5 µM.

For the compound `Cc1nc(N[C@H](C)c2ccc(C(F)(F)F)cc2)nc(N[C@@H]2C[C@H](CO)[C@@H](O)[C@H]2O)c1-c1nc2c(C)nccc2s1` [Example 1356], the EC90 was under 0.5 µM.

With `Cc1nc(NCC(F)(F)F)nc(N[C@@H]2C[C@H](CS(C)(=O)=O)[C@@H](O)[C@H]2O)c1-c1nc2ccccc2s1` [Example 1357], the EC90 was under 0.5 µM.

As for `Cc1ccc([C@@H](C)Nc2nc(C)c(-c3nc4c(C)nccc4s3)c(N[C@@H]3C[C@H](CO)[C@@H](O)[C@H]3O)n2)cc1F` [Example 1358], the EC90 was under 0.5 µM.

As for `Cc1nc(NCC(C)(C)C)nc(N[C@@H]2C[C@H](CO)[C@@H](O)[C@H]2O)c1-c1nc2ccccc2o1` [Example 1359], the EC90 was under 0.5 µM.

For `Cc1ccc([C@@H](C)Nc2nc(C)c(-c3nc4ccccc4o3)c(N[C@@H]3C[C@H](CO)[C@@H](O)[C@H]3O)n2)cc1` [Example 1360], the EC90 was 0.5 to 5 µM.

`Cc1nc(N[C@@H](c2ccsc2)C(F)(F)F)nc(N[C@@H]2C[C@H](CO)[C@@H](O)[C@H]2O)c1-c1nc2c(C)nccc2s1` [Example 1361]: the EC90 was under 0.5 µM.

Take `Cc1ccc([C@H](Nc2nc(C)c(-c3nc4c(C)nccc4s3)c(N[C@@H]3C[C@H](CO)[C@@H](O)[C@H]3O)n2)C2CC2)cc1` [Example 1362]: the EC90 is under 0.5 µM.

The EC90 is the concentration at which the effect reaches the 90% level.

Values taken from patent US8697694B2, “Substituted pyridine and pyrimidine derivatives and their use in treating viral infections” (priority 2008, dated 2014).
